Legend:
patients = assay: Clinical study on patients with memory disorders, compared to pyracetam; format: in vivo, human
Excerpt: The preparation according to the present invention was studied in clinics on 130 patients.
As regards diagnosis and sex the patients were distributed as follows:
skull-brain traumata with memory disturbance: 75 patients (52 men and 23 women)
Alzheimer's disease: 15 patients (3 men and 12 women)
Pick's disease: 5 patients (5 men)
Senile dementia: 15 patients (4 men and 11 women)
Vascular dementia (cerabral atero-sclerosis, hypertonic disease): 20 patients (7 men and 13 women)
In the group of patients with skull-brain trauma the patient's age varied from 17 to 60 years, in the other patients--from 52 to 75 years.
In addition to clinico-psychopathological methods of investigation, all the patients were subjected to neuropsychological studies during which specific tasks were offered them to solve. In doing so, the response was assessed against a 4-points scale: 3--maximally pronounced disorder, full or substantially full incapability to deal with the task set; 2--a medium degree of manifestation of the deficiency, solving the task with the experimentator's assistance; 1--minor errors, independent correction of mistakes; 0--lack of disturbances.
The treatment course duration is 30-60 days. In the case of an acute skull-brain trauma (65 patients) the treatment started 15-20 days after the moment of trauma and lasted for 20-30 days.
It is known that the function of memory has a complex brain organization and different zones of brains take part in its regulation. During the studies a multi-faceted assessment of the memory function was carried out; there were assessed: (1) mnestic component of the environmental orientation of a patient; (2) involuntary memory for current events; (3) intentional exo-experimental memory; (4) volume and soundness of audio-speaking memory; (5) volume and soundness of visual memory; (6) operative memory; (7) memory for knowledge acquired before the disease.

[1] = test system: rabbit's brain hemispheres; assay: Amplitude of induced potential in brain hemispheres (acoustic irritation); format: in vivo; details: rabbits
Procedure: (§1) In the third series of experiments the effect of the preparation according to the present invention on the functional brain asymmetry was studied. The experiments were carried out on rabbits with electrodes implanted in the brain. The electrodes under nembutal narcosis (40 mg/kg) were implanted strictly symmetrically into the bearing zone of the temporal cortex of the right and left hemispheres on its lateral surface, whereas the indifferent electrode was secured to the nasal bones of a rabbit's skull. The acoustic irritation was applied through earphones. As the acoustic irritation a sound click caused by a square-shaped pulse from an electronic stimulator with a frequency of 0.1-0.2 Hz was used; the click intensity was adjusted within the range of from 5 to 80 Db. The amplification of the taken-off biopotentials was effected on an electroencephalograph; the induced potentials were obtained by means of an analyzer. 100 experiments on 20 animals were thus conducted; the interval between experiments on one animal was 7 days. The amplitude and form of the induced potential were determined. The asymmetry factor (Kas) was calculated by the formula: [formula] Ar --amplitude of the induced potential of the […] hemisphere, μV;
(§2) A1 --amplitude of the induced potential of the left hemisphere.
(§3) The test preparations were administered hypodermally in the form of 0.5-1.5% aqueous solutions 20 minutes before the beginning of the measurements.

[2] = test system: learning ability of rats in a shuttle chamber; assay: Active avoidance learning in a shuttle chamber, rats; format: in vivo, rat
Excerpt: (§4) In these experiments rats are taught to avoid an electric shock by escaping into a next chamber communicating with the first chamber by means of a special opening--a door. An electric current is applied to the chamber door consisting of metal plates. A conditional irritator is a light signal together with a sound click. The learning series consisted of 50 combinations. The number of combinations necessary for the animal's learning to escape into another chamber in response to the conditional signal was determined. Five correct responses out of 6 where regarded as the proof of stability of the acquired knowledge and were denoted as a "learning criterion". After 7 days the educational procedure was repeated, and again the number of combinations necessary to acquire the "learning criterion" was determined. In the case of difference between the first and second readings the percentage of retention of the acquired knowledge was calculated.
(§5) In this experiment the effect of the preparation according to the present invention and prior art preparations was separately evaluated for the purpose of comparison on well-learning and on specially selected poorly learning rats. […] To the poorly learning rats the animals were assigned which reached no "learning criterion" in the teaching series of 50 combinations, or, in other words, a stable knowledge of active avoidance was not worked out in them. […] The preparation according to the present invention and the prior art comparison preparations were administered before the first teaching series or thereafter.
(§6) Also studied were the effects produced upon a single and repeated administration of the preparation according to the present invention for 14 days.

[3] = test system: cerebral cortex of rabbits; assay: Asymmetry factor by induced potential in the hearing zone of the cerebral cortex; format: in vivo, rabbit
Procedure: as §1, §2, §3

[4] = test system: learning ability of rats preliminarily sorted out for poor learning ability; assay: Active avoidance learning in a shuttle chamber, rats sorted out for poor learning ability; format: in vivo, rat; details: poorly learning rats
Excerpt: as §4, §5, §6

[5] = rats, hypodermally 1 mg/kg 14 days
[6] = rats, hypodermally 5 mg/kg 14 days
[7] = rats, hypodermally 5 mg/kg after teaching

Cl.Nc1c2c(nc3c1CCC3)CCCC2.O [preparation of the invention, 9-amino-2,3,5,6,7,8-hexahydro-1H-cyclopenta(b)quinoline monohydrate hydrochloride]
therapeutic effect (patients; Alzheimer's and Pick's diseases): An essential amelioration
recovery of psychic functions (patients; acute skull-brain trauma): faster and more complete recovery of psychic functions
therapeutic effect, memory (patients; consequences of a vascular injury of brains): an improvement of memory was noted along with a higher working capacity
effect on memory parameters (patients; environmental orientation, past knowledge, involuntary, voluntary exo-experimental and operative memory): more complete and faster recovering effect
effect on the functional symmetry of the brain and activity of the dominating hemisphere (patients; experimental and clinical studies): enhanced activity of the dominating hemisphere
character of recovery (in words) (patients; patients): constructive and environmental praxis recovered most efficiently along with reading ability and memory
recovery of visual versus audio memory (in words) (patients; patients): visual memory recovered faster than the audio memory
restoration of psychic functions as compared to pyracetam (patients; patients, 5 to 30 mg a day subcutaneous, 30-60 days): faster and more complete restoration of psychic functions
amplitude of induced potentials (in words) [1]: increased greater in the left hemisphere
Change of amplitude of induced potential, % of the control, left hemisphere ([1]; hypodermally 5 mg/kg): 270%
Change of amplitude of induced potential, % of the control, right hemisphere ([1]; hypodermally 5 mg/kg): 200%
Mean value of amplitude of induced potential, % ([1]; hypodermally 5 mg/kg): 235%
learning capacity (in words) ([2]; rats, 1, 5 and 10 mg/kg): stimulate the learning capacity of rats
activity on learning versus comparison preparations (in words) ([2]; rats, Tables 1 and 2): substantially more active than 4-aminopyridine, physostigmine, pyracetam and lysyl-vasopressin
Number of combinations to reach the "learning criterion" in II teaching series (after 7 days) ([2]; rats, hypodermally 1 mg/kg): 4.2 + 0.8
Number of combinations to reach the "learning criterion" in the I teaching series ([2]; rats, hypodermally 1 mg/kg): 14.2 + 1.2
Number of non-taught animals in the group ([2]; rats, hypodermally 1 mg/kg): 3/20
Percentage knowledge retention ([2]; rats, hypodermally 1 mg/kg): 70.4%
Number of combinations to reach the "learning criterion" in II teaching series (after 7 days) [2, 5]: 3.9 ± 0.8
Number of combinations to reach the "learning criterion" in the I teaching series [2, 5]: 14.7 ± 1.9
Number of non-taught animals in the group [2, 5]: 2/20
Percentage knowledge retention [2, 5]: 72.7%
Number of combinations to reach the "learning criterion" in II teaching series (after 7 days) ([2]; rats, hypodermally 5 mg/kg): 2.6 + 0.3
Number of combinations to reach the "learning criterion" in the I teaching series ([2]; rats, hypodermally 5 mg/kg): 11.5 + 0.9
Number of non-taught animals in the group ([2]; rats, hypodermally 5 mg/kg): 1/20
Percentage knowledge retention ([2]; rats, hypodermally 5 mg/kg): 77.4%
Number of combinations to reach the "learning criterion" in II teaching series (after 7 days) [2, 6]: 4.4 ± 0.5
Number of combinations to reach the "learning criterion" in the I teaching series [2, 6]: 14.8 ± 2.0
Number of non-taught animals in the group [2, 6]: 2/20
Percentage knowledge retention [2, 6]: 69.3%
Number of combinations to reach the "learning criterion" in II teaching series (after 7 days) [2, 7]: 7.2 ± 0.8
Number of combinations to reach the "learning criterion" in the I teaching series [2, 7]: 19.0 ± 1.2
Number of non-taught animals in the group [2, 7]: 1/20
Percentage knowledge retention [2, 7]: 60%
Number of combinations to reach the "learning criterion" in II teaching series (after 7 days) ([2]; rats, hypodermally 10 mg/kg): 3.0 + 0.5
Number of combinations to reach the "learning criterion" in the I teaching series ([2]; rats, hypodermally 10 mg/kg): 12.9 + 0.8
Number of non-taught animals in the group ([2]; rats, hypodermally 10 mg/kg): 0/15
Percentage knowledge retention ([2]; rats, hypodermally 10 mg/kg): 76.7%
Number of combinations to reach the "learning criterion" in II teaching series (after 7 days) ([2]; rats, per os 5 mg/kg): 6.0 + 0.5
Number of combinations to reach the "learning criterion" in the I teaching series ([2]; rats, per os 5 mg/kg): 12.8 + 1.7
Number of non-taught animals in the group ([2]; rats, per os 5 mg/kg): 2/20
Percentage knowledge retention ([2]; rats, per os 5 mg/kg): 60%
stimulating effect as compared to single-time administration (in words) ([2]; rats, two-weeks of administration): stimulating effect is also enhanced
asymmetry factor (in words) [3]: the asymmetry factor is also increased
% of knowledge retention ([4]; hypodermally 5 mg/kg): 64.3%
Number of combinations till appearance of "learning criterion", I teaching ([4]; hypodermally 5 mg/kg): 21 ± 2.7
Number of combinations till appearance of "learning criterion", II-checking of retention of knowledge ([4]; hypodermally 5 mg/kg): 7.5 ± 0.9
Number of untaught animals in the group ([4]; hypodermally 5 mg/kg): 3/20
% of knowledge retention ([4]; hypodermally I mg/kg): 57.5%
Number of combinations till appearance of "learning criterion", I teaching ([4]; hypodermally I mg/kg): 24 ± 2.5
Number of combinations till appearance of "learning criterion", II-checking of retention of knowledge ([4]; hypodermally I mg/kg): 10.2 ± 1.5
Number of untaught animals in the group ([4]; hypodermally I mg/kg): 6/20
